The text below walks through data of PMC12396291, “DNA-encoded library screening uncovers potent DNMT2 inhibitors targeting a cryptic allosteric binding site” (iScience, 2025).

The nature of series [1]: ATP-quantifying cell viability assay, 48 h. It counts as cell-based. The following applies: human, MOLM-13, HCT, Huh-7, MDA-MB-231 and HEK293 cells, all cell lines.
Another series concerns MOLM-13 cells. The experiment in a line: Cell viability assay, doxorubicin co-treatment. The format is cell-based. The following applies: Homo sapiens; MOLM-13, doxorubicin 48 h; read-out: CC50 (only doxorubicin). Here is the method: Cell viability assays were conducted with MOLM-13 cells, Huh-7, MDA-MB-231, HEK293, and HCT MTase mutant cell lines (WT, knock-down DNMT2, and knock-down NSUN2) to investigate the DNMT2 inhibiting compounds’ cellular effect. Cells were cultured according to standard protocols: MOLM-13 (RPMI, 10% FBS, 1x Penicillin/Streptomycin, 37 °C, 5% CO2), Huh-7/MDA-MB-231/HEK293 (DMEM, 10% FBS, 1x Penicillin/Streptomycin, 37 °C, 5% CO2) and HCT (McCoys’s 5A Medium, 10% FBS, L-Glutamine, 1x Penicillin/Streptomycin, 37 °C, 5% CO2). Cell viability was assessed using Promega Cell Titer Glo assay kit (MOLM-13, Huh-7, MDA-MB-231, HEK293) or Lonza ViaLight Plus Cell Proliferation and Cytotoxicity BioAssay Kit (HCT cell lines). Briefly, 1000 cells were seeded in white Greiner half-area 96-well plates and incubated for 48 h with inhibitors/ligands from DMSO stocks (final: 0.1% DMSO) under standard cultivation conditions. Then, the cell titer reagent was added to each well according to the manufacturer’s protocols, and luminescence was measured using a Tecan Spark 10M plate reader (MOLM-13, Huh-7, MDA-MB-231, HEK293) or Molecular Devices FlexStation (HCT cell lines).

A short description of series [2]: Solubility remark from ITC titration. It counts as physicochemical. As to conditions: ITC buffer, remark in words. As to the method: (§1) The DNMT2 protein was purified via size exclusion chromatography eluting in isothermal titration calorimetry (ITC) buffer (50 mM sodium phosphate pH 8.0, 300 mM NaCl, 1 mM EDTA, 2 mM β-mercaptoethanol, 0.1% polysorbate-20) and directly used for measurements.[3] All compounds were dissolved in DMSO to a concentration of 5 mM and were then diluted in ITC buffer to a final concentration of 500 μM. DNMT2 was diluted to a final concentration of 50 μM with 10% DMSO to match the ligand stocks' DMSO concentration. For the ITC measurements, a MicroCal PEAQ-ITC Automated workstation (Malvern Panalytical) with a 200 μL Hastelloy cell and an injection syringe volume of 40 μL was used. All experiments were performed in triplicates at 25 °C unless otherwise noted. For each measurement, 19 compound injections (2 μL each) with an injection speed of 0.5 μL/s were added to the reaction cell containing DNMT2. The spacing time between sequential injections was 300 s, and the stirring speed was set to 750 rpm with a reference power of 42 μW. As control experiments, ligands were titrated into ITC buffer. Data analysis and fitting were carried out using the MicroCal PEAQ-ITC Analysis Software 1.21 and plotted in GraphPad Prism 8.0.1.

A further series has as its target T1, DNMT2 in MOLM-13 cells (Homo sapiens, UniProt O14717).
T1 construct: engages DNMT2 in the MOLM-13 cellular environment, we performed cellular thermal shift assays (CETSA); endogenous in cells; host or cells: MOLM-13
T1 sequence (O14717 1-391): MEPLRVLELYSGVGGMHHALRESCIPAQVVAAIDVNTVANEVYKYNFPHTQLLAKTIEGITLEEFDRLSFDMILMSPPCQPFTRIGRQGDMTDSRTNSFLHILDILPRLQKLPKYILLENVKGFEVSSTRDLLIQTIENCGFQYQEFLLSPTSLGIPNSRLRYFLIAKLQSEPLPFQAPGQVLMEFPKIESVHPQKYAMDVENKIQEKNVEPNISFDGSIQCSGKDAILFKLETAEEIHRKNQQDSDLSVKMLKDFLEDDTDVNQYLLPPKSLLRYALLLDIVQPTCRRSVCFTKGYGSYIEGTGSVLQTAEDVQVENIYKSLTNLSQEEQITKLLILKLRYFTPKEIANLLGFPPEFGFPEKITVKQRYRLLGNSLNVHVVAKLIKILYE
The experiment in a line: Cellular thermal shift assay (CETSA). It counts as cell-based. The following applies: MOLM-13, 50 μM, 16 h.

In series [3] the target is T2, DNMT2 (Homo sapiens, UniProt O14717).
T2 construct: Recombinant human DNMT2 (full-length); His-tag; made in house; host or cells: E. coli
T2 sequence (O14717 1-391): T1 sequence (O14717 1-391)
The series can be described thus: ^3H-based methyltransferase enzyme activity assay (^3H-SAM incorporation into tRNA^Asp). It counts as biochemical.
Protocol: Enzymatic DNMT2 inhibition assays were carried out in 100 mM Tris-HCl, pH 8.0, 100 mM NH4OAc, 0.1 mM EDTA, 10 mM MgCl2, and 10 mM DTT as described previously.[3]^,[4] First, the tRNA^Asp substrate was heated to 75 °C for 5 min and cooled down to room temperature (RT) before it was added to the reaction mixture to a final concentration of 5 μM. The reaction mixture contained 250 nM DNMT2 and the ligand compounds at variable concentrations (5% DMSO). Enzymatic reactions were started by the addition of 0.9 μM SAM as a mixture of ^3H-SAM (Hartmann Analytics) resp. cold SAM (NEB) to a final activity of 0.025 μCi μL^−1. Enzyme assays were carried out for 30 min at 37 °C. As a negative control served the reaction mixture without DNMT2 and as a positive control the reaction mixture without test compound. After 30 min, aliquots of 8 μL were taken from the reaction mixture and spotted on Whatman glass microfiber filters (GF/C, 25 mm). The RNA was precipitated on the filters with 5% ice-cold TCA for 15 min. […] Scintillation was measured with a scintillation counter (TriCarb Liquid Scintillation Analyzer 4810 TR; measurement time of 1 min). For IC50-value determination, compounds were analyzed at a minimum of six different concentrations in triplicates. IC50-values were calculated, evaluated, and plotted in GraphPad Prism 8.0.1.

The target of the next series is T3, DNMT2Δ47 (Homo sapiens, UniProt O14717, DEL191-237).
T3 construct: His-tag; made in house; host or cells: E. coli (host printed only for the crystallization preparation)
T3 sequence (O14717 with tags, fused parts or gaps DEL191-237): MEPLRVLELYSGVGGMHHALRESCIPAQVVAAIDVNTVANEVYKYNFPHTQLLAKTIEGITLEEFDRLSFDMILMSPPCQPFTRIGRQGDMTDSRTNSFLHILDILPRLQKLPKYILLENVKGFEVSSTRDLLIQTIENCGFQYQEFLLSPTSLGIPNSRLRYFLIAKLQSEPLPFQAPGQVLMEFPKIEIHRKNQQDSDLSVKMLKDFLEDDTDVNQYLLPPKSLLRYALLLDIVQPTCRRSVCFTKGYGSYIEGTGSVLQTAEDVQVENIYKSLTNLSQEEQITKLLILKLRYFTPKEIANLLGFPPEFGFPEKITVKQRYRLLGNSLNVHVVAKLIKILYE
The experiment in a line: MST FTAD assay with deletion mutant. It counts as binding. As to conditions: DNMT2Δ47 2 μM, FTAD probe; read-out: affinity (MST KD) against DNMT2Δ47. Here is the method: (§2) Screening for ligand binding and evaluation of dose-response affinity profiles was performed via microscale thermophoresis (MST) as described previously.[42] The measurements were conducted with a Nanotemper Technologies Monolith NT.115 device. All samples were measured in Monolith standard capillaries at 25 °C. The acquisition mode was set to “Nano-Blue” with an excitation power of 30% and a medium MST power, while the system was controlled using the software MO.Control (version 1.6.1) and for evaluation MO.Affinity Analysis (version 2.3) was used. The samples contained 2 μM DNMT2, 100 nM FTAD (5-FAM-triazolyl-adenosyl-Dab) probe, and 1.3% DMSO in MST buffer (50 mM HEPES, 150 mM NaCl, 1 mM dithiothreitol (DTT), 0.1% PEG-8000, 0.05% polysorbate-20, pH 7.4).[42] All compounds were employed at a final concentration of 100 μM for the initial ligand screening.

Series [4] deals with T2, DNMT2. The series can be described thus: MST displacement assay with fluorescent FTAD probe. Set-up: Fnorm (MST screening): unit not given here. It counts as binding. As to the method: as §2
Series [5] deals with T2, DNMT2. The experiment in a line: Affinity selection-mass spectrometry (AS-MS). It counts as binding. As to conditions: 5 μM DNMT2, label-free. Here is the method: Orthogonal KD-value determination for compound 3 was conducted by an affinity selection-mass spectrometry (AS-MS) assay according to Prudent et al.[43] and Simon et al.[67] Compound 3 was dissolved in DMSO (20 mM) and a dilution series in Tris buffer (25 mM Tris, 100 mM NaCl, pH 7.5) was prepared to give final ligand concentrations of 100 μM, 50 μM, 25 μM, 12.5 μM, 6.25 μM, 3.12 μM, 1.56 μM, and 0 μM. DNMT2 was diluted in Tris buffer (130 μM) and added to the dilution series to give a final concentration of 5 μM DNMT2. Zeba Spin Desalting columns 7K MWCO were used for the affinity-based separation. These columns were centrifuged at 2000g for 1 min to remove the storage buffer. 20 μL of the prepared samples were loaded to the columns, and the protein-ligand complex was eluted by centrifugation at 2000g for 2 min. The centrifuged solutions were diluted with 10 μL ACN and analyzed by LC/MS with an Agilent 1100 Series HPLC system. The data evaluation and subsequent binding affinity determination were performed with MestReNova (version 14.0.1) and GraphPad Prism 8.0.1.

In series [6] the target is T2, DNMT2. The series can be described thus: Isothermal titration calorimetry (ITC), direct titration. It counts as binding. The following applies: direct titration at 25 °C; n.b. = no enthalpy signal observable. As to the method:
as §1
(In general: Isothermal titration calorimetry measures the heat released or taken up as one component is titrated into another.)

Series [7] is described as follows: Parallel artificial membrane permeation assay (PAMPA). It counts as in vitro ADME. As to conditions: 7 h incubation, duplicates. Here is the method:
To determine the passive permeability of selected DNMT2 ligands, a parallel artificial membrane permeation assay (PAMPA) was performed as described previously.[68] The experiment was performed in duplicates with Sigma-Aldrich MAIPNTR10 donor plates with 5 μL of an artificial membrane (1% w/v L-α-phosphatidylcholine in n-dodecane) per well. After incubation for 7 h, the acceptor solutions were evaluated by LC/MS (HP Agilent 1100 Series). The peak areas in the UV chromatogram (λ = 210 nm) were used to calculate the areas under the curve (AUCs).
In general terms: PAMPA measures passive passage across an artificial lipid membrane.

The target of another series is T4, DNMT2-NonO interaction (Homo sapiens, UniProt O14717).
T4 construct: Recombinant human DNMT2 (full-length); host or cells: E. coli (DNMT2)
T4 sequence (O14717 1-391): T1 sequence (O14717 1-391)
T4 sequence (Q15233 1-471 partner): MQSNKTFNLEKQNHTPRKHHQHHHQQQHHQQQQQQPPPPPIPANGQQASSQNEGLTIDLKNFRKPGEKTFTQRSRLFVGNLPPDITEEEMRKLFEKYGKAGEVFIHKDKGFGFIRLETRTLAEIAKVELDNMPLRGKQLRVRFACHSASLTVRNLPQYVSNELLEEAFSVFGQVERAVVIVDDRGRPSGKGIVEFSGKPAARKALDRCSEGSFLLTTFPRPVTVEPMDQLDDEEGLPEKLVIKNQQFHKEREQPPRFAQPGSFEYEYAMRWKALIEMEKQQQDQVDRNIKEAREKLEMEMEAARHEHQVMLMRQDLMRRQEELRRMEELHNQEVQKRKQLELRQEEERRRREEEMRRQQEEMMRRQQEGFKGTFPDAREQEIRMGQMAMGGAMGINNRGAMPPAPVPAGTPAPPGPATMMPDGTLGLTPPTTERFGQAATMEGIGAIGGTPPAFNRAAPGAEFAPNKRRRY
The experiment in a line: Pull-down competition assay. It counts as binding. The following applies: 100 μM SFG, 100 μM 16 or 10 μM tRNA^Asp.

The target of another series is T5, DNMT2-eIF4E interaction (Homo sapiens, UniProt O14717).
T5 construct: Recombinant human DNMT2 (full-length); host or cells: E. coli (DNMT2)
T5 sequence (P06730 whole entry partner, one chain of several): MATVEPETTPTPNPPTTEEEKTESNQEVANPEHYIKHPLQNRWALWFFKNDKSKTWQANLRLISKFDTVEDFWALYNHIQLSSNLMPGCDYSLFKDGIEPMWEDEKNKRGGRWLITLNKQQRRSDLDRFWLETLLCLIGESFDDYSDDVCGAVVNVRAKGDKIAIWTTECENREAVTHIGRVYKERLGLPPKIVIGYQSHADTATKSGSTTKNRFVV
The series can be described thus: Pull-down competition assay. It counts as binding. The following applies: 100 μM sinefungin, 100 μM 16 or 10 μM tRNA^Asp.

Each structure is given as a SMILES string. Several values for one entry are separate records, joined by “and”; a condition that tells them apart may be missing. Identical values can stand only once. Entries after “also recorded” stand apart in the source; their conditions may differ.

Protocol for DNMT2 in MOLM-13 cells: After incubation for 16 h (37 °C, 5% CO2), the cell suspensions were collected. The cells were washed twice and then counted, followed by the addition of 1 mL PBS. The cell suspension was divided into eight parts, and then heated for 4 min at various temperatures (40, 43, 46, 49, 52, 55, 58 °C) in a PCR thermocycler. The cells were lysed through a freeze-thaw process using liquid nitrogen. The supernatant solutions were used for immunoblotting analysis. […] Proteins were separated by SDS−PAGE on 4–20% Criterion TGX Precast Protein Gels (Bio-Rad) and transferred to Amersham Protean 0.45 μm nitrocellulose membrane (Cytiva) using semi-dry transfer (25 V, 1 A, Towbin buffer). […] Subsequently, the membrane was incubated for 3 h at RT with IRDye 680RD Goat anti-Rabbit (1:1000, LICOR, 926–68071). Protein bands were visualized using a GE Healthcare Typhoon Trio biomolecular scanner, with laser excitation at 637 nm and fluorescence detection at 670 nm. The ImageLab software (Bio-Rad) was used for band quantification.
Protocol for DNMT2-NonO interaction: (§3) For immobilization on streptavidin beads, DNMT2 was biotinylated using the EZ-Link Sulfo-NHS-LC-Biotinylation kit. A 20-fold excess of Sulfo-NHS-LC-Biotin (10 mM in water) was added to DNMT2 and incubated for 2 h on ice. […] The biotinylation level was estimated using a HABA assay included in the kit according to the manufacturer’s protocols.
(§4) For in vitro pull-down assays, biotinylated DNMT2 was immobilized on streptavidin-coated paramagnetic beads (GenScript Streptavidin MagBeads). For this, beads were washed with PBS buffer containing 0.05% Triton X-100, and subsequently, DNMT2 (30 μg per 50 μL beads) was immobilized for 45 min at RT. As a negative control, beads were treated with a protein-free buffered solution. Beads were washed with PBS buffer, and for each sample, 5 μL beads were added to either 1.5 μg of recombinant NonO protein (Active Motif) or 3.0 μg of recombinant eIF4E protein (Cayman). Beads were incubated for 1 h at RT, and subsequently, the supernatant was removed. […] The samples were incubated for 45 min at RT, and the supernatant was treated with 2 μL 5× Laemmli buffer. […] All samples were heated to 95 °C for 10 min and analyzed via SDS-PAGE. […] Protein bands were visualized using a GE Healthcare Typhoon Trio biomolecular scanner, with laser excitation at 488 nm and fluorescence detection at 580 nm.
Protocol for DNMT2-eIF4E interaction: as §3, §4

Broadly, the CC50 is the concentration at which the toxic effect on the cells reaches its halfway point. Consider `Nc1ncn([C@@H]2O[C@H](CO)[C@@H](O)[C@H]2O)c(=O)n1` [azacitidine], for which the CC50 at 48 h in series [1] was less than 10 µM.

On to `COc1cccc2c1C(=O)c1c(O)c3c(c(O)c1C2=O)C[C@@](O)(C(=O)CO)C[C@@H]3O[C@H]1C[C@H](N)[C@H](O)[C@H](C)O1` [doxorubicin], for which the CC50 in the series with MOLM-13 cells stood at 0.045 ± 0.003 µM.

Take `CNC(=O)[C@@H](Nc1nc(N2CCN(c3c(C)cccc3C)CC2)nc(N(C)c2cccc(C)c2)n1)[C@@H](C)OC(C)(C)C` [Compound 2]: the solubility result in series [2] is reported as “low solubility”.

Usually IC50 stands for the point on the concentration scale where inhibition reaches its midpoint. As usually defined, the Kd is the concentration at which binding is half-saturated. On to `CCc1ccc(C(=O)NCC2(C(=O)NC(CC(=O)NCC(=O)NC)Cc3c[nH]c4ccccc34)CC2)cc1` (stereo not drawn) [Compound 3], for which the “thermal stabilization of DNMT2 (CETSA)” value at DNMT2 in MOLM-13 cells is listed as “no thermal stabilization occurred”. This compound also came in with an IC50 against DNMT2 [3] of 38.9 ± 6.9 µM. Also, the Kd on DNMT2Δ47 was 102 µM; at DNMT2 [4] (FTAD probe 100 nM, 2 μM DNMT2, n.b. = no thermophoresis shift observable), 48 µM and 48.2 µM; on DNMT2 [5], 8.4 ± 2.2 µM; at DNMT2 [6] it was 5.3 µM and 5.31 µM. Moreover, the “FTAD displacement in the MST assay” value on DNMT2 [4] (DEL hits, result in words) was “quantitative FTAD displacement”. Besides, the “Fnorm (% displ.): FTAD displacement” value on DNMT2 [4] (ligand 100 μM, FTAD probe) is recorded as 53%. The “Fnorm (MST screening)” value at DNMT2 [4] (ligand 100 μM, FTAD probe) was 912.1. In series [7], the “Papp (PAMPA)” value is recorded as “failed to pass through the artificial membrane; also recorded: below detection limit”.

On to `Nc1ncnc2c1ncn2[C@@H]1O[C@H](C[C@@H](N)CC[C@H](N)C(=O)O)[C@@H](O)[C@H]1O` [sinefungin], for which the “displacement of NonO from immobilized DNMT2” value at DNMT2-NonO interaction is “NonO could not be displaced”. For the same compound, the “displacement of eIF4E from immobilized DNMT2” value on DNMT2-eIF4E interaction is on record as “neither NonO nor eIF4E could be displaced”.
